Each structure is given as a SMILES string. pIC50: −log10 of the molar value.

Experiment [1] addresses O-acyltransferase (Oryctolagus cuniculus, UniProt G1SFD9). The experiment can be described thus: In vitro inhibition of intestinal Acyl coenzyme A:cholesterol acyltransferase in cholesterol-fed rabbits.
Experiment [2] has as its system Rattus norvegicus. The experiment can be described thus: Tested in vivo for the ability to lower the total plasma cholesterol (TC) in an chronic peanut oil/cholesterol/cholic Acid (APCC) model at the dose of 30 mg/kg. It is filed as functional.

O-acyltransferase, sequence (G1SFD9 1-524): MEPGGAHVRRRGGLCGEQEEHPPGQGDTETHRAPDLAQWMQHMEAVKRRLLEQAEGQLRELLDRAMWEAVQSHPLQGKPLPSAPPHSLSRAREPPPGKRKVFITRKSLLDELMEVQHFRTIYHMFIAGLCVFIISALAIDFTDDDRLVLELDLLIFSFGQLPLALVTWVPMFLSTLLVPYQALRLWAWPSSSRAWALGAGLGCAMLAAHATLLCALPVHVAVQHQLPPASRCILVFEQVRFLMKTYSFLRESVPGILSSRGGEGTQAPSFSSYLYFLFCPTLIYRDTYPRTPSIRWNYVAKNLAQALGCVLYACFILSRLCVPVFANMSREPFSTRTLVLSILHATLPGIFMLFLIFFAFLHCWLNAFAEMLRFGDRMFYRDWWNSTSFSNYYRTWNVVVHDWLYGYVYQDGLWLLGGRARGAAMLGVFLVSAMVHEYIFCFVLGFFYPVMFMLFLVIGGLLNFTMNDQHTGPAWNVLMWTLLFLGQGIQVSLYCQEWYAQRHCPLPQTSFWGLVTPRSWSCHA

The compound `CCCCCCCc1ccc(NC(=O)Nc2c(C(C)C)cccc2C(C)C)cc1` gave a pIC50 in experiment [1] of 7.72. The “Delta TC” value in experiment [2] was -21%.

With `CCCCCc1ccc(NC(=O)Nc2c(C(C)C)cccc2C(C)C)cc1`, the pIC50 in experiment [1] was 7.49. Take `CCCCCCCCCCc1ccc(NC(=O)Nc2c(C(C)C)cccc2C(C)C)cc1`: the negative logarithm of the IC50 (pIC50) in experiment [1] is 7.89. Further, the “Delta TC” value in experiment [2] was -25%. `Cc1ccc(NC(=O)Nc2c(C(C)C)cccc2C(C)C)cc1` gave a pIC50 in experiment [1] of 6.60. In turn, `CC(C)c1cccc(C(C)C)c1NC(=O)Nc1ccc(C(C)(C)C)cc1` showed a negative logarithm of the IC50 (pIC50) in experiment [1] of 6.77. In experiment [2], the “Delta TC” value is reported as -10%. On the same counts, the results for `CCCCCCCCCc1ccc(NC(=O)Nc2c(C(C)C)cccc2C(C)C)cc1` are 8.05 and -8%. `CCCc1ccc(NC(=O)Nc2c(C(C)C)cccc2C(C)C)cc1` gave a pIC50 in experiment [1] of 7.42. Same read-out and setting: the value for `CCc1ccc(NC(=O)Nc2c(C(C)C)cccc2C(C)C)cc1` was 7.00.

For the compound `CCCCCCCCCCCc1ccc(NC(=O)Nc2c(C(C)C)cccc2C(C)C)cc1`, the negative-log IC50 (pIC50) in experiment [1] was 8.05. Further, the “Delta TC” value in experiment [2] is reported as -29%.

In the case of `CCCCCCCN(Cc1ccc(CC(C)(C)C)cc1)C(=O)Nc1ccc(F)cc1F` [CL-277082], the “Delta TC” value in experiment [2] is -54%. In experiment [1], `CCCCc1ccc(NC(=O)Nc2c(C(C)C)cccc2C(C)C)cc1` gave a pIC50 of 7.54. For the same compound, the “Delta TC” value in experiment [2] was -12%. Regarding `CC(C)c1ccc(NC(=O)Nc2c(C(C)C)cccc2C(C)C)cc1`, the negative-log IC50 (pIC50) in experiment [1] was 7.18. In experiment [1], `CCCCCCCCc1ccc(NC(=O)Nc2c(C(C)C)cccc2C(C)C)cc1` had a pIC50 of 7.96. Also, the “Delta TC” value in experiment [2] is recorded as -29%. On the same counts, the results for `CCCCCCCCCCCCCCc1ccc(NC(=O)Nc2c(C(C)C)cccc2C(C)C)cc1` are 6.30 and -25%. The matching figures for `CCCCCCCCCCCCc1ccc(NC(=O)Nc2c(C(C)C)cccc2C(C)C)cc1`: 7.82 and -47%. The matching figures for `CCCCCCCCCCCCCc1ccc(NC(=O)Nc2c(C(C)C)cccc2C(C)C)cc1`: 7.96 and -70%. For the compound `CCCCCCc1ccc(NC(=O)Nc2c(C(C)C)cccc2C(C)C)cc1`, in experiment [1], the negative-log IC50 (pIC50) was 7.59. In experiment [2], the “Delta TC” value is given as -18%.

The values above are taken from ChEMBL document CHEMBL1152031, “Substituted N,N-diphenyl ureas as potent inhibitors of acyl-CoA:Cholesterol acyltransferase (ACAT)” (Bioorg Med Chem Lett, 1993).
